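GI50 = concentration required for 50% inhibition of growth. The concentration for full growth arrest is given as TGI.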
Experiments:
Assay in all cases: NCI tumour cell line growth inhibition, 384-well format; in the data active means GI50 below about 0.43 µM; inactive means the rest
UO-31 renal = tested on: UO-31 renal
A498 renal = tested on: A498 renal
BT-549 breast = tested on: BT-549 breast
HL-60(TB) leukemia = tested on: HL-60(TB) leukemia
NCI-H322M lung = tested on: NCI-H322M lung
HT29 colon = tested on: HT29 colon
NCI-H460 NSCLC = tested on: NCI-H460 NSCLC
M14 melanoma = tested on: M14 melanoma
PC-3 prostate = tested on: PC-3 prostate
OVCAR-5 ovarian = tested on: OVCAR-5 ovarian
OVCAR-4 ovarian = tested on: OVCAR-4 ovarian
SK-MEL-2 melanoma = tested on: SK-MEL-2 melanoma
SW-620 colon = tested on: SW-620 colon
SF-539 CNS = tested on: SF-539 CNS
CCRF-CEM leukemia = tested on: CCRF-CEM leukemia
OVCAR-8 ovarian = tested on: OVCAR-8 ovarian
MCF7 breast = tested on: MCF7 breast
HCT-116 colon = tested on: HCT-116 colon
MDA-MB-435 melanoma = tested on: MDA-MB-435 melanoma
RPMI-8226 leukemia = tested on: RPMI-8226 leukemia
HOP-62 NSCLC = tested on: HOP-62 NSCLC
NCI-H522 lung = tested on: NCI-H522 lung
OVCAR-3 ovarian = tested on: OVCAR-3 ovarian
UACC-257 melanoma = tested on: UACC-257 melanoma
HS 578T breast = tested on: HS 578T breast
MDA-MB-468 breast = tested on: MDA-MB-468 breast
MOLT-4 leukemia = tested on: MOLT-4 leukemia
RXF 393 renal = tested on: RXF 393 renal
K-562 leukemia = tested on: K-562 leukemia
CAKI-1 renal = tested on: CAKI-1 renal
786-0 renal = tested on: 786-0 renal
HCT-15 colon = tested on: HCT-15 colon
TK-10 renal = tested on: TK-10 renal
SK-OV-3 ovarian = tested on: SK-OV-3 ovarian
MDA-MB-231 breast = tested on: MDA-MB-231 breast
SR leukemia = tested on: SR leukemia
DU-145 prostate = tested on: DU-145 prostate
NCI-H226 lung = tested on: NCI-H226 lung
HCC-2998 colon = tested on: HCC-2998 colon
T-47D breast = tested on: T-47D breast
SF-268 CNS = tested on: SF-268 CNS
COLO 205 colon = tested on: COLO 205 colon
SN12C renal = tested on: SN12C renal
SNB-75 CNS = tested on: SNB-75 CNS
U251 glioblastoma = tested on: U251 glioblastoma
SK-MEL-5 melanoma = tested on: SK-MEL-5 melanoma
NCI-H23 lung = tested on: NCI-H23 lung

O=C(Nc1cnn2ccc(N3CCC[C@@H]3c3cc(F)ccc3F)nc12)N1CC[C@H](O)C1
> 100 µM: TGI (UO-31 renal) | TGI (A498 renal) | TGI (BT-549 breast) | TGI (HL-60(TB) leukemia) | TGI (NCI-H322M lung) | TGI (HT29 colon) | TGI (NCI-H460 NSCLC) | TGI (M14 melanoma) | TGI (PC-3 prostate) | TGI (OVCAR-5 ovarian) | TGI (OVCAR-4 ovarian) | TGI (SK-MEL-2 melanoma) | TGI (SW-620 colon) | TGI (SF-539 CNS) | TGI (CCRF-CEM leukemia) | TGI (OVCAR-8 ovarian) | TGI (MCF7 breast) | TGI (HCT-116 colon) | TGI (MDA-MB-435 melanoma) | TGI (RPMI-8226 leukemia) | TGI (HOP-62 NSCLC) | TGI (NCI-H522 lung) | TGI (OVCAR-3 ovarian) | TGI (UACC-257 melanoma) | TGI (HS 578T breast) | TGI (MDA-MB-468 breast) | TGI (MOLT-4 leukemia) | TGI (RXF 393 renal) | TGI (K-562 leukemia) | TGI (CAKI-1 renal) | TGI (786-0 renal) | TGI (HCT-15 colon) | TGI (TK-10 renal) | TGI (SK-OV-3 ovarian) | TGI (MDA-MB-231 breast) | TGI (SR leukemia) | TGI (DU-145 prostate) | TGI (NCI-H226 lung) | TGI (HCC-2998 colon) | TGI (T-47D breast) | TGI (SF-268 CNS) | TGI (COLO 205 colon) | TGI (SN12C renal) | TGI (SNB-75 CNS) | TGI (U251 glioblastoma) | TGI (SK-MEL-5 melanoma) | TGI (NCI-H23 lung)
inactive: GI50 (UO-31 renal) > 100 µM | GI50 (A498 renal) > 100 µM | GI50 (BT-549 breast) > 100 µM | GI50 (HL-60(TB) leukemia) > 100 µM | GI50 (NCI-H322M lung) > 100 µM | GI50 (HT29 colon) > 100 µM | GI50 (NCI-H460 NSCLC) > 100 µM | GI50 (M14 melanoma) > 100 µM | GI50 (PC-3 prostate) > 100 µM | GI50 (OVCAR-5 ovarian) > 100 µM | GI50 (OVCAR-4 ovarian) > 100 µM | GI50 (SK-MEL-2 melanoma) > 100 µM | GI50 (SW-620 colon) > 100 µM | GI50 (SF-539 CNS) > 100 µM | GI50 (CCRF-CEM leukemia) > 100 µM | GI50 (OVCAR-8 ovarian) > 100 µM | GI50 (MCF7 breast) > 100 µM | GI50 (HCT-116 colon) > 100 µM | GI50 (MDA-MB-435 melanoma) > 100 µM | GI50 (RPMI-8226 leukemia) > 100 µM | GI50 (HOP-62 NSCLC) > 100 µM | GI50 (NCI-H522 lung) > 100 µM | GI50 (OVCAR-3 ovarian) > 100 µM | GI50 (UACC-257 melanoma) > 100 µM | GI50 (HS 578T breast) > 100 µM | GI50 (MDA-MB-468 breast) > 100 µM | GI50 (MOLT-4 leukemia) 77.1 µM | GI50 (RXF 393 renal) > 100 µM | GI50 (K-562 leukemia) > 100 µM | GI50 (CAKI-1 renal) > 100 µM | GI50 ([…]-0 renal) > 100 µM | GI50 (HCT-15 colon) > 100 µM | GI50 (TK-10 renal) > 100 µM | GI50 (SK-OV-3 ovarian) > 100 µM | GI50 (MDA-MB-231 breast) > 100 µM | GI50 (SR leukemia) > 78.9 µM | GI50 (DU-145 prostate) > 100 µM | GI50 (NCI-H226 lung) > 100 µM | GI50 (HCC-2998 colon) > 100 µM | GI50 (T-47D breast) > 100 µM | GI50 (SF-268 CNS) > 100 µM | GI50 (COLO 205 colon) > 100 µM | GI50 (SN12C renal) > 100 µM | GI50 (SNB-75 CNS) > 100 µM | GI50 (U251 glioblastoma) > 100 µM | GI50 (SK-MEL-5 melanoma) > 100 µM | GI50 (NCI-H23 lung) > 100 µM

COc1ncc(-c2nc3c(n2C(C)C)[C@H](c2ccc(Cl)cc2)N(c2cc(Cl)cn(C)c2=O)C3=O)c(OC)n1
97.8 µM: TGI (SW-620 colon)
30.2 µM: TGI (NCI-H226 lung)
51.7 µM: TGI (CCRF-CEM leukemia)
29.6 µM: TGI (SK-MEL-5 melanoma)
inactive: GI50 (UO-31 renal) 12.4 µM | GI50 (A498 renal) 9.44 µM | GI50 (BT-549 breast) 36.2 µM | GI50 (HL-60(TB) leukemia) 16.7 µM | GI50 (NCI-H322M lung) > 96 µM | GI50 (HT29 colon) 51.5 µM | GI50 (NCI-H460 NSCLC) 14.2 µM | GI50 (M14 melanoma) 48.5 µM | GI50 (PC-3 prostate) 39.7 µM | GI50 (OVCAR-5 ovarian) > 100 µM | GI50 (OVCAR-4 ovarian) 28.9 µM | GI50 (SK-MEL-2 melanoma) > 100 µM | GI50 (SW-620 colon) 53.5 µM | GI50 (SF-539 CNS) > 73 µM | GI50 (CCRF-CEM leukemia) 22.9 µM | GI50 (OVCAR-8 ovarian) 66.1 µM | GI50 (MCF7 breast) 24.7 µM | GI50 (HCT-116 colon) 18.2 µM | GI50 (MDA-MB-435 melanoma) 60.3 µM | GI50 (RPMI-8226 leukemia) 20.7 µM | GI50 (HOP-62 NSCLC) > 51 µM | GI50 (NCI-H522 lung) 48.4 µM | GI50 (OVCAR-3 ovarian) 33.3 µM | GI50 (UACC-257 melanoma) 17.5 µM | GI50 (HS 578T breast) 33.3 µM | GI50 (MDA-MB-468 breast) 17.3 µM | GI50 (MOLT-4 leukemia) 2.06 µM | GI50 (RXF 393 renal) 35.5 µM | GI50 (K-562 leukemia) 33.2 µM | GI50 (CAKI-1 renal) 6.27 µM | GI50 ([…]-0 renal) 62.7 µM | GI50 (HCT-15 colon) 36 µM | GI50 (TK-10 renal) > 68.4 µM | GI50 (SK-OV-3 ovarian) > 76 µM | GI50 (MDA-MB-231 breast) 44.6 µM | GI50 (SR leukemia) 1.96 µM | GI50 (DU-145 prostate) 64.4 µM | GI50 (NCI-H226 lung) 13 µM | GI50 (HCC-2998 colon) 65.7 µM | GI50 (T-47D breast) 34.3 µM | GI50 (SF-268 CNS) > 50.5 µM | GI50 (COLO 205 colon) 62.6 µM | GI50 (SN12C renal) > 93.2 µM | GI50 (SNB-75 CNS) > 52.2 µM | GI50 (U251 glioblastoma) 65.4 µM | GI50 (SK-MEL-5 melanoma) 12.7 µM | GI50 (NCI-H23 lung) 60.6 µM
> 100 µM: TGI (BT-549 breast) | TGI (NCI-H322M lung) | TGI (HT29 colon) | TGI (M14 melanoma) | TGI (PC-3 prostate) | TGI (OVCAR-5 ovarian) | TGI (OVCAR-4 ovarian) | TGI (SK-MEL-2 melanoma) | TGI (SF-539 CNS) | TGI (OVCAR-8 ovarian) | TGI (MCF7 breast) | TGI (HCT-116 colon) | TGI (MDA-MB-435 melanoma) | TGI (HOP-62 NSCLC) | TGI (NCI-H522 lung) | TGI (HS 578T breast) | TGI (K-562 leukemia) | TGI (786-0 renal) | TGI (HCT-15 colon) | TGI (TK-10 renal) | TGI (SK-OV-3 ovarian) | TGI (MDA-MB-231 breast) | TGI (DU-145 prostate) | TGI (HCC-2998 colon) | TGI (COLO 205 colon) | TGI (SN12C renal) | TGI (SNB-75 CNS) | TGI (U251 glioblastoma) | TGI (NCI-H23 lung)
> 91.8 µM: TGI (T-47D breast)
52.9 µM: TGI (A498 renal)
39.6 µM: TGI (MDA-MB-468 breast)
5.15 µM: TGI (MOLT-4 leukemia)
37.3 µM: TGI (UACC-257 melanoma)
90 µM: TGI (OVCAR-3 ovarian)
> 89.3 µM: TGI (RXF 393 renal)
31.1 µM: TGI (HL-60(TB) leukemia)
10.9 µM: TGI (SR leukemia)
> 64.1 µM: TGI (CAKI-1 renal)
28.2 µM: TGI (UO-31 renal)
42.7 µM: TGI (RPMI-8226 leukemia)
45.5 µM: TGI (NCI-H460 NSCLC)
> 77.9 µM: TGI (SF-268 CNS)

Reference: PubChem BioAssay (NCI)
